These results are taken from PubChem BioAssay (NCI).

SMILES strings stand for the structures.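 48-hour exposure; five concentrations; linearly interpolated endpoints. At the TGI there is no net growth.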

Test systems include SF-268 CNS; EKVX NSCLC; SK-MEL-2 melanoma; SK-MEL-5 melanoma; SK-OV-3 ovarian; TK-10 renal; HT29 colon; SW-620 colon; RPMI-8226 leukemia; SNB-75 CNS; UO-31 renal; KM12 colon; LOX IMVI melanoma; NCI-H226 lung; HOP-92 NSCLC; NCI/ADR-RES ovarian; ACHN renal; MDA-MB-435; HCT-15 colon; OVCAR-8 ovarian.
Common to all, as to assay: growth of human tumour cells (NCI), 48 h

`CCOC(=O)C(NCc1ccc2c(c1)OCO2)(NC(=O)c1ccccc1)C(F)(F)F` (centres undefined): the TGI with SF-268 CNS, with EKVX NSCLC, with SK-MEL-2 melanoma, with SK-MEL-5 melanoma, in the experiment on SK-OV-3 ovarian and in the experiment with TK-10 renal was over 100 µM throughout. In addition, the TGI in the experiment with HT29 colon, in the experiment on SW-620 colon, with RPMI-8226 leukemia, with SNB-75 CNS, in the experiment with UO-31 renal and with KM12 colon was over 100 µM throughout. Moreover, the TGI with LOX IMVI melanoma, in the experiment with NCI-H226 lung, with HOP-92 NSCLC, in the experiment with NCI/ADR-RES ovarian, in the experiment with ACHN renal and in the experiment with MDA-MB-435 was over 100 µM throughout. Further, the TGI in the experiment with HCT-15 colon and in the experiment with OVCAR-8 ovarian was over 100 µM throughout.

Turning to `O=C1Nc2ccccc2S/C1=C\c1cccc(C(F)(F)F)c1`, the TGI with SF-268 CNS, in the experiment on EKVX NSCLC, in the experiment with SK-MEL-2 melanoma, in the experiment with SK-MEL-5 melanoma, with SK-OV-3 ovarian and in the experiment with TK-10 renal was over 100 µM in each case. Besides, the TGI with HT29 colon, in the experiment with SW-620 colon, in the experiment on RPMI-8226 leukemia, with SNB-75 CNS, in the experiment with UO-31 renal and with KM12 colon was over 100 µM in each case. For the same molecule, the TGI in the experiment on LOX IMVI melanoma, with NCI-H226 lung, in the experiment with HOP-92 NSCLC, in the experiment on NCI/ADR-RES ovarian, in the experiment on ACHN renal and with MDA-MB-435 was over 100 µM throughout. For the same molecule, the TGI in the experiment on HCT-15 colon and in the experiment on OVCAR-8 ovarian was over 100 µM each time.

In the case of `CSCCC(N)P(C)(=O)O` (centres undefined), the TGI in the experiment with SF-268 CNS, in the experiment on EKVX NSCLC, in the experiment with SK-MEL-2 melanoma, in the experiment with SK-MEL-5 melanoma, in the experiment with SK-OV-3 ovarian and in the experiment on TK-10 renal was over 100 µM each time. For the same molecule, the TGI in the experiment on HT29 colon, with SW-620 colon, in the experiment on RPMI-8226 leukemia, with SNB-75 CNS, with UO-31 renal and in the experiment on KM12 colon was over 100 µM throughout. The TGI in the experiment on LOX IMVI melanoma, in the experiment on NCI-H226 lung, in the experiment with HOP-92 NSCLC, with NCI/ADR-RES ovarian, in the experiment with ACHN renal and with MDA-MB-435 was over 100 µM in each case. In addition, the TGI in the experiment on HCT-15 colon and in the experiment on OVCAR-8 ovarian was over 100 µM each time.

In the case of `Cc1cnc(-c2c[nH]c3ccccc23)nc1-c1c[nH]c2ccccc12`, the TGI with SF-268 CNS is 35.6 µM; in the experiment with EKVX NSCLC, 19.3 µM; in the experiment with SK-MEL-2 melanoma, 20.6 µM; in the experiment with SK-MEL-5 melanoma, 20.5 µM; in the experiment with SK-OV-3 ovarian it was 24 µM; in the experiment on TK-10 renal it was 18.1 µM. For the same molecule, the TGI with HT29 colon was 14.7 µM; with SW-620 colon, 30.2 µM; with RPMI-8226 leukemia, over 100 µM; in the experiment with SNB-75 CNS it was 9.64 µM; in the experiment with UO-31 renal, 20.8 µM; in the experiment with KM12 colon, 15.6 µM. Also, the TGI was 17.1 µM in the experiment on LOX IMVI melanoma; 7.21 µM in the experiment with HOP-92 NSCLC; over 100 µM in the experiment on NCI/ADR-RES ovarian; 10 µM with ACHN renal; 19.8 µM in the experiment on MDA-MB-435; 27 µM in the experiment on HCT-15 colon. Also, the TGI with OVCAR-8 ovarian is 22.7 µM.

In the case of `COC(=O)Nc1nc2ccc(S(=O)(=O)n3nnc4ccccc43)cc2[nH]1`, the TGI in the experiment on SF-268 CNS is over 100 µM; with EKVX NSCLC it was over 100 µM; in the experiment on SK-MEL-2 melanoma it was over 100 µM; in the experiment with SK-MEL-5 melanoma, over 100 µM; in the experiment on SK-OV-3 ovarian, 41.2 µM; in the experiment on HT29 colon, over 100 µM. The TGI in the experiment with SW-620 colon is over 100 µM; in the experiment on RPMI-8226 leukemia, over 100 µM; in the experiment on SNB-75 CNS, 21.4 µM; with UO-31 renal, over 100 µM; in the experiment on KM12 colon, over 100 µM; in the experiment with LOX IMVI melanoma, over 100 µM. In addition, the TGI in the experiment with HOP-92 NSCLC is 35.8 µM; in the experiment with NCI/ADR-RES ovarian, over 100 µM; with ACHN renal it was over 100 µM; in the experiment on MDA-MB-435 it was over 100 µM; with HCT-15 colon, over 100 µM; in the experiment with OVCAR-8 ovarian, over 100 µM.

With `COc1cc(C=C2N=C(c3ccccc3)N(n3c(-c4ccccc4)nc4ccccc4c3=O)C2=O)cc(OC)c1OC`, the TGI in the experiment on SF-268 CNS was 69 µM; in the experiment with EKVX NSCLC, 83.5 µM; in the experiment on SK-MEL-2 melanoma it was 43.4 µM; in the experiment on SK-MEL-5 melanoma it was 56.6 µM; in the experiment on SK-OV-3 ovarian it was 91.4 µM; in the experiment with TK-10 renal, over 100 µM. Besides, the TGI in the experiment with HT29 colon was 78.1 µM; in the experiment on SW-620 colon it was over 100 µM; in the experiment with SNB-75 CNS, 62.6 µM; in the experiment on UO-31 renal, over 100 µM; in the experiment with KM12 colon, 46.3 µM; in the experiment on LOX IMVI melanoma, 41.3 µM. Moreover, the TGI was 49.4 µM with NCI-H226 lung; 33.7 µM with HOP-92 NSCLC; over 100 µM in the experiment on NCI/ADR-RES ovarian; 82.2 µM in the experiment on ACHN renal; 55.3 µM in the experiment on MDA-MB-435; over 100 µM in the experiment on HCT-15 colon. This molecule had a TGI in the experiment on OVCAR-8 ovarian of 51.4 µM.

Consider `O=c1[nH]c(=O)n(C2OC(CO)C(O)C2O)c2ccsc12` (centres undefined), for which the TGI in the experiment on SF-268 CNS, with EKVX NSCLC, with SK-MEL-2 melanoma, in the experiment with SK-MEL-5 melanoma, in the experiment on TK-10 renal and with HT29 colon was over 100 µM in each case. Besides, the TGI with SW-620 colon, in the experiment on RPMI-8226 leukemia, in the experiment on SNB-75 CNS, with UO-31 renal, in the experiment on KM12 colon and with LOX IMVI melanoma was over 100 µM throughout. Moreover, the TGI in the experiment with NCI-H226 lung, in the experiment on HOP-92 NSCLC, in the experiment with NCI/ADR-RES ovarian, with ACHN renal, in the experiment on MDA-MB-435 and in the experiment on HCT-15 colon was over 100 µM in each case.
